Source: patent US10954214B2 (Janssen Pharmaceutica NV, priority 2016, dated 2021)
pIC50: −log10 of the molar value.

How the values were obtained:
[1] = biological target: full-length MALT1 protein (Strep-MALT1(1-824)-His) (Homo sapiens (Human), UniProt Q9UDY8); experiment: MALT1 Biochemical Protease Assay (Ac-LRSR-AMC substrate); details: 10 nM FL MALT1, 200 μM Ac-LRSR-AMC, 4 h at RT; read-out: MALT1_Biochemical activity (Ac-LRSR-amc) IC50
Outline: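 Full-length MALT1 pre-incubated with compounds (30 μM to 0.5 nM, 11 threefold steps) for 50 min at RT. After Ac-LRSR-AMC was added, the reaction ran 4 h at RT and AMC fluorescence was read. IC50 and Hill slope from curve fitting against no-enzyme and no-compound controls.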

[2] = tested on: IL6 secretion by TMD8 ABC-DLBCL cells; experiment: Human IL6 Mesoscale assay (TMD-8); format: cell-based; details: Homo sapiens, TMD8; TMD-8 cells, 24 h
Outline: (§1)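 Compounds tested from 15 μM to 58.6 nM (twofold, 9 concentrations) on 100,000 cells per well over 24 h at 37° C, without beta-mercaptoethanol. Secreted cytokine in supernatant detected by MSD electrochemiluminescence; scaling used DMSO as maximum and RN486 as full inhibition.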

[3] = tested on: IL10 secretion by TMD8 ABC-DLBCL cells; experiment: Human IL10 Mesoscale assay (TMD-8); format: cell-based; details: Homo sapiens, TMD8; TMD-8 cells, 24 h
Outline: as §1

OCI-Ly3 cells = experiment: 4-day proliferation assay, OCI-Ly3; format: cell-based, human; details: Homo sapiens, 96 h, 4 days incubation, CellTiterGLO, read-out: Anti-proliferation: OCI-LY-3 IC50
Description: (§2) To assess anti-proliferative effects, MALT1 inhibitor test compounds were tested in 4-day proliferation assays using three different DLBCL cell lines.
(§3) Cells should be kept between 0.5-2.5 million cells per mL during culturing and cells should be supplemented every 2-3 days with fresh 50 μM beta-mercaptoenthanol. No beta-mercaptoethanol is used during the proliferation assay. OCI-Ly7 cells were propagated in IMDM (ThermoFisher) supplemented with 10% fetal bovine serum (HyClone), 2 mM L-glutamine (Sigma Aldrich) and 50 μg/mL Gentamycin. Cell passage numbers should not exceed 30 (for OCI-Ly3 cells with passage number lower than 10 were used).
(§4) 10,000 TMD8, 10,000 OCI-Ly3 or 2,000 OCI-Ly7 cells were seeded in 100 μL media per well and incubated for 4 days at 37° C. and 5% CO2. Cell plating numbers were chosen based on growth curves to ensure linear cell growth. After 4 days of incubation 50 μL CellTiterGLO reagent (Promega) were added to each well and luminescence was measured on the Envision after 10 min of incubation at room temperature.
(§5) LC=median of the low control values
(§6) An estimate of the slope of the plot in terms of the Hill coefficient was also obtained.

TMD8 cells = experiment: 4-day proliferation assay, TMD8; format: cell-based; details: Homo sapiens, 96 h, 4 days incubation, CellTiterGLO, read-out: Anti-proliferation: TMD-8 IC50
Description: as §2, §3, §4, §5, §6

full-length MALT1 protein (Strep-MALT1(1-824)-His), sequence (Q9UDY8 whole entry): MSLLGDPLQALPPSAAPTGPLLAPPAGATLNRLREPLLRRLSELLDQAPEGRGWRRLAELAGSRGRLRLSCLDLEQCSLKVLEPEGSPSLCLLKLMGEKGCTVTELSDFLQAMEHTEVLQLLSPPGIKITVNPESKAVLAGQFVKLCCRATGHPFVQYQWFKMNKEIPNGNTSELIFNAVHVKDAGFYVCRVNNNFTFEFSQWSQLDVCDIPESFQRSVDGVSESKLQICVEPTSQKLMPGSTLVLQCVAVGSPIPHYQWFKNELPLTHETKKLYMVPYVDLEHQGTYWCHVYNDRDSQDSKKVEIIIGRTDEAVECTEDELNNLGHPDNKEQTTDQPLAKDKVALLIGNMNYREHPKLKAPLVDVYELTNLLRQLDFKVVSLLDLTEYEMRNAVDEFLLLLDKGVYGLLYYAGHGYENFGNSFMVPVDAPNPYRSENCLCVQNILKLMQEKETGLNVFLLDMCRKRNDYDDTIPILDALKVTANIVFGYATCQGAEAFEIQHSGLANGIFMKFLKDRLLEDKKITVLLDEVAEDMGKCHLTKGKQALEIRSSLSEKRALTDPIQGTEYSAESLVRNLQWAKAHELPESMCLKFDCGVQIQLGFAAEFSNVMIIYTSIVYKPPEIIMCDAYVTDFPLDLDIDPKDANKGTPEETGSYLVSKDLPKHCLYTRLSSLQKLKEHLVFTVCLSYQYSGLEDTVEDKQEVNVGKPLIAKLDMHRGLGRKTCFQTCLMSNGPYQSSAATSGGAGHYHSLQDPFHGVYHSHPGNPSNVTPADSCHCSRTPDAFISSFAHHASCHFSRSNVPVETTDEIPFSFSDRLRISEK

pIC50 [1]	pIC50 [2]	pIC50 [3]	pIC50 (OCI-Ly3 cells)	Structure (SMILES)	pIC50 (TMD8 cells)
7.49	6.98	6.95	6.16	N#Cc1cc(NC(=O)c2cnn(-c3nccn4cccc34)c2C(F)(F)F)cnc1-n1nccn1 [Cpd 148, N-(5-cyano-6-(2H-1,2,3-triazol-2-yl)pyridin-3-yl)-1-(pyrrolo[1,2-a]pyrazin-1-yl)-5-(trifluoromethyl)-1H-pyrazole-4-carboxamide]	5.42
5.69	6.48	6.48	6.04	O=C(Nc1cnc(-n2nccn2)c(Cl)c1)c1cnn(-c2cccc3nc(Cl)ccc23)c1C(F)(F)F [Cpd 221, N-(5-chloro-6-(2H-1,2,3-triazol-2-yl)pyridin-3-yl)-1-(2-chloroquinolin-5-yl)-5-(trifluoromethyl)-1H-pyrazole-4-carboxamide]	5.59
7.89	6.41	6.74	6.40	Cc1nc(-n2nccn2)c(Cl)cc1NC(=O)c1cnn(-c2cncc3c(F)cccc23)c1C(F)(F)F [Cpd 123, N-(5-chloro-2-methyl-6-(2H-1,2,3-triazol-2-yl)pyridin-3-yl)-1-(8-fluoroisoquinolin-4-yl)-5-(trifluoromethyl)-1H-pyrazole-4-carboxamide]	6.30
7.77	7.25	7.68	6.58	[2H]c1ccc2c(-n3ncc(C(=O)Nc4cnc(-n5nccn5)c(Cl)c4)c3C(F)(F)F)cccc2n1 [Cpd 131, N-(5-chloro-6-(2H-1,2,3-triazol-2-yl)pyridin-3-yl)-1-(2-Dquinolin-5-yl)-5-(trifluoromethyl)-1H-pyrazole-4-carboxamide]	5.58
6.39	6.07	5.86	5.78	NCCCCNC(=O)c1ncc(NC(=O)c2cnn(-c3cncc4ccccc34)c2C(F)(F)F)cc1Cl [Cpd 72, N-(4-aminobutyl)-3-chloro-5-(1-(isoquinolin-4-yl)-5-(trifluoromethyl)-1H-pyrazole-4-carboxamido)picolinamide]	< 4.70
7.22	6.55	6.92	6.59	Cc1cnc2cccc(-n3ncc(C(=O)Nc4cnc(-n5nccn5)c(Cl)c4)c3C(F)(F)F)c2c1 [Cpd 65, N-(5-Chloro-6-(2H-1,2,3-triazol-2-yl)pyridin-3-yl)-1-(3-methylquinolin-5-yl)-5-(trifluoromethyl)-1H-pyrazole-4-carboxamide]	4.99
7.70	7.24	7.34	5.99	Nc1cnn(-c2ncc(NC(=O)c3cnn(-c4cccc5c(=O)[nH]ccc45)c3C(F)(F)F)cc2Cl)n1 [Cpd 134, N-(6-(4-amino-2H-1,2,3-triazol-2-yl)-5-chloropyridin-3-yl)-1-(1-oxo-1,2-dihydroisoquinolin-5-yl)-5-(trifluoromethyl)-1H-pyrazole-4-carboxamide]	4.70
7.96	7.17	7.33	6.19	N#Cc1cc(NC(=O)c2cnn(-c3nccc4ccoc34)c2C(F)(F)F)cnc1-n1nccn1 [Cpd 99, N-(5-cyano-6-(2H-1,2,3-triazol-2-yl)pyridin-3-yl)-1-(furo[2,3-c]pyridin-7-yl)-5-(trifluoromethyl)-1H-pyrazole-4-carboxamide]	~5.49
7.82	7.68	7.37	6.87	N#Cc1cc(NC(=O)c2cnn(-c3ccnc4sccc34)c2C(F)(F)F)cnc1-n1nccn1 [Cpd 126, N-(5-cyano-6-(2H-1,2,3-triazol-2-yl)pyridin-3-yl)-1-(thieno[2,3-b]pyridin-4-yl)-5-(trifluoromethyl)-1H-pyrazole-4-carboxamide]	6.10
6.59	6.31	6.56	6.27	O=C(Nc1cnc(-n2nccn2)c(Cl)c1)c1cnn(-c2nccc3ccccc23)c1C(F)F [Cpd 56, N-(5-Chloro-6-(2H-1,2,3-triazol-2-yl)pyridin-3-yl)-5-(difluoromethyl)-1-(isoquinolin-1-yl)-1H-pyrazole-4-carboxamide]	< 4.70
6.99	6.58	6.65	5.90	O=C(Nc1cnc(-n2nccn2)c(F)c1)c1cnn(-c2cncc3ccccc23)c1C(F)(F)F [Cpd 61, N-(5-fluoro-6-(2H-1,2,3-triazol-2-yl)pyridin-3-yl)-1-(isoquinolin-4-yl)-5-(trifluoromethyl)-1H-pyrazole-4-carboxamide]	~4.85
7.33	< 5.52	6.69	5.96	O=C(Nc1ccc(-n2cc(CO)cn2)c(Cl)c1)c1cnn(-c2cccc3ncccc23)c1C(F)(F)F [Cpd 175, N-(3-chloro-4-(4-(hydroxymethyl)-1H-pyrazol-1-yl)phenyl)-1-(quinolin-5-yl)-5-(trifluoromethyl)-1H-pyrazole-4-carboxamide]	5.91
7.26	7.09	6.95	~6.31	Cn1ccc(-c2ncc(NC(=O)c3cnn(-c4cncc5ccccc45)c3C(F)(F)F)cc2C#N)n1 [Cpd 78, N-(5-cyano-6-(1-methyl-1H-pyrazol-3-yl)pyridin-3-yl)-1-(isoquinolin-4-yl)-5-(trifluoromethyl)-1H-pyrazole-4-carboxamide]	5.12
7.64	< 6.52	< 6.52	5.95	COC(=O)c1cnn(-c2ncc(NC(=O)c3cnn(-c4cccc5ncccc45)c3C(F)(F)F)cc2Cl)n1 [Cpd 108, Methyl 2-(3-chloro-5-(1-(quinolin-5-yl)-5-(trifluoromethyl)-1H-pyrazole-4-carboxamido)pyridin-2-yl)-2H-1,2,3-triazole-4-carboxylate]	5.78
6.97	6.48	6.68	5.87	N#Cc1cc(NC(=O)c2cnn(-c3cccc4ncccc34)c2C(F)(F)F)cnc1OC1CC1 [Cpd 88, N-(5-cyano-6-cyclopropoxypyridin-3-yl)-1-(quinolin-5-yl)-5-(trifluoromethyl)-1H-pyrazole-4-carboxamide]	~4.92
7.77	6.67	6.78	6.38	[2H]c1ccc2c(-n3ncc(C(=O)Nc4cnc(-n5nccn5)c(C#N)c4)c3C(F)(F)F)cccc2n1 [Cpd 130, N-(5-cyano-6-(2H-1,2,3-triazol-2-yl)pyridin-3-yl)-1-(2-D-quinolin-5-yl)-5-(trifluoromethyl)-1H-pyrazole-4-carboxamide]	5.46
7.36	6.03	6.44	5.77	N#Cc1cc(NC(=O)c2cnn(-c3cccc4ncccc34)c2C(F)(F)F)cnc1-n1ncc(CO)n1 [Cpd 177, N-(5-cyano-6-(4-(hydroxymethyl)-2H-1,2,3-triazol-2-yl)pyridin-3-yl)-1-(quinolin-5-yl)-5-(trifluoromethyl)-1H-pyrazole-4-carboxamide]	5.18
6.53	5.69	5.84	~5.94	O=C(Nc1cnc(-c2nccs2)c(Cl)c1)c1cnn(-c2cncc3ccccc23)c1C(F)(F)F [compound 63, N-(5-chloro-6-(thiazol-2-yl)pyridin-3-yl)-1-(isoquinolin-4-yl)-5-(trifluoromethyl)-1H-pyrazole-4-carboxamide]	< 5.10
7.16	6.48	6.88	6.09	Cc1ncc(-n2ncc(C(=O)Nc3cnc(-n4nccn4)c(Cl)c3)c2C(F)(F)F)c2ccccc12 [Cpd 66, N-(5-chloro-6-(2H-1,2,3-triazol-2-yl)pyridin-3-yl)-1-(1-methylisoquinolin-4-yl)-5-(trifluoromethyl)-1H-pyrazole-4-carboxamide]	~5.06
7.46	6.28	5.94	5.76	N#Cc1cc(NC(=O)c2cnn(-c3ccc(F)c4nccn34)c2C(F)(F)F)cnc1-n1nccn1 [Cpd 204, N-(5-cyano-6-(2H-1,2,3-triazol-2-yl)pyridin-3-yl)-1-(8-fluoroimidazo[1,2-a]pyridin-5-yl)-5-(trifluoromethyl)-1H-pyrazole-4-carboxamide]	5.23
